The values below come from publication PMC10860144, “Exploring the Dispersion and Electrostatic Components in Arene–Arene Interactions between Ligands and G4 DNA to Develop G4-Ligands” (Journal of Medicinal Chemistry, 2024).

One series concerns HeLa cells. Briefly: HeLa cell viability (PrestoBlue). It is filed as cell-based. Particulars: Homo sapiens, 48 h. The method, then: (§1) Cell viability was measured using the PrestoBlue cell viability reagent (Invitrogen) according to the manufacturer’s recommendations.
For HeLa cells, 5000 cells/well were seeded in complete medium on 96-wells, black walls plate the day before the treatment. Compounds were dissolved in medium at the indicated concentrations and added to cells. Five technical replicates were performed for each treatment. 48 h after treatment, 8 μL of PrestoBlue was added to each well and the cells were incubated at 37 °C for 15 min. Fluorescence (excitation 560 nm, emission 590 nm, 10 nm bandwidth) was recorded using a FLUOstar Omega Microplate Reader (BMG). […]
as §1
For HeLa cells, 5000 cells/well were seeded in complete medium on 96-wells, black walls plate the day before the treatment. […] Fluorescence (excitation 560 nm, emission 590 nm, 10 nm bandwidth) was recorded using a FLUOstar Omega Microplate Reader (BMG).
For Immortalized Human Total Liver Cell Population (IHTLCP), 1850 cells/well were seeded in complete Prigrow III medium (abm) in 384-wells, black walls plate (Perkin Elmer) the day before the treatment. […] Percent viability of IHTLCP cells was calculated as FLUcmp -FLUbg/ FLUDMSO -FLUbg (n=3).
THP1 cell viability was measured according to a previously published procedure.9

The nature of series [1]: Caco-2 intrinsic permeability. Particulars: human, read-out: Cell-permeability (Papp). It is filed as in vitro ADME. From the text: We next performed further profiling of the most promising compound 5 and its matched pair neutral analogue 27, by measuring intrinsic permeability in a Caco-2 assay (Table S3). […] This was further confirmed using Immortalized Human Total Liver Cell Population (IHTLCP) and HeLa cells (Figures S22 and S23). […] This observed cytotoxicity of 5 can be linked to its potent G4 binding and stabilization, as it can potentially act as a pan-G4 stabilizer and affect various G4-regulated cellular processes, such as telomere maintenance, gene transcription, and DNA replication.
Physicochemical properties
The Physicochemical profiling (LogD, Solubility, Caco-2 cell permeability) was performed as previously
described.8 Cell viability was performed as described below.
Table S2. Pharmacokinetic Properties
Compound Structure logD, Solubility, Rat hepsa Human mics b

Series [2] has as its system G4 DNA structures in HeLa cells. Briefly: BG4 immunostaining of G4 DNA structures in HeLa cells. It is filed as cell-based, human. The conditions noted are these: 24 h. The method, then:
The pSANG10-3F-BG4 construct, for expression and purification of recombinant BG4 (BG4), was a gift from Shankar Balasubramanian (Addgene plasmid # 55756). BG4 was purified as previously described.[49] BG4 immunostaining was performed as previously described.[50] Briefly, 60,000 HeLa cells were seeded on 13 mm glass coverslips the day before treatment. Cells were treated for 24 h with the compounds at the indicated concentrations. After treatment, cells were fixed in 2% paraformaldehyde and permeabilized in 0.1% Triton X-100 at room temperature. […] Cell nuclei were focused on the DAPI channel, and BG4-positive foci were counted in a semiautomatic mode using a customized Cell Profiler (Broad Institute) pipeline. […]
Figure S23. Toxicity of 5 and 27 calculated as % viability of IHTLCP cells treated for 72h at the indicated concentrations compared to non-treated cells. […] IC50 and R2 determined with Graph Pad Prism is indicated. […]
Cells were imaged with a LEICA SP8 FALCON confocal microscope equipped with a 63× oil objective (NA 1.40) using identical acquisition settings. Cell nuclei were focused on the DAPI channel, and BG4-positive foci were counted in a semiautomatic mode using a customized Cell Profiler (Broad Institute) pipeline. […]

pIC50: −log10 of the molar value. Bounds are passed on as bounds.

On to `Cc1cc(C)c2nc(Nc3nc(C)cc(NCCCN(C)C)n3)nc(C)c2c1` [Compound 5, N4-(3-(Dimethylamino)propyl)-6-methyl-N2-(4,6,8-trimethylquinazolin-2-yl)pyrimidine-2,4-diamine], for which the pIC50 in the series with HeLa cells is 5.96 to 6.06. In series [1], the Papp is below 0.13 ×10⁻⁶ cm/s. Besides, in series [2] (2 μM, versus 1 μM and mock-treated cells), the “number of BG4 foci per cell nucleus” value is on record as “increased significantly”.
Consider `Cc1cc(C)c2nc(Nc3nc(C)cc(C)n3)nc(C)c2c1` [Compound 27, N-(4,6-Dimethylpyrimidin-2-yl)-4,6,8-trimethylquinazolin-2-amine], for which the pIC50 with HeLa cells is 4.47 to 4.72. Besides, the Papp in series [1] was found to be 70 ×10⁻⁶ cm/s. Besides, the “number of BG4 foci per cell nucleus” value in series [2] (20 μM) is reported as “not statistically fully significant”.
